# Assay results: patent US20050261197A1, “Coffee bean extract, method of extraction and composition containing the same” (priority 2004, published 2005)
# What was measured:
# [1] = 11-day body weight gain of rats in the adjuvant-induced arthritis study; type: in vivo, male Sprague-Dawley rats; settings: for Avg. Final Body wt. / Avg. Weight Gain: oral gavage once per day for 11 days
# Procedure: (§1) Rats weighting between 275-310 g were purchased from Animal Technologies Ltd., Kent, Wash. They were male Sprague-Dawley rats. The animals were kept individually in stainless steel cages with free access to water and feed (Harlan Teklan Rodent Diet). The light cycle was maintained at 12 hours light and 12 hours dark. The temperature was maintained at 22° C.±3° C. with a relative humidity of 40 to 70%.
# (§2) The test materials were delivered orally (by gavage) once per day for 11 days.
# (§3) The test materials were given orally (by gavage) to each of 5 rats per treatment group once per day for 11 days. Administration of the test materials was initiated on the day of induction of inflammation.
# (§4) The left hind paw was measured just before sensitization and again on Day 11. The plantar edema inhibitory rate and the body weight gain rate were determined by comparison with the non-sensitized rat groups.
# [2] = system: Adjuvant Induced Arthritis in Rats; assay: Adjuvant-induced arthritis model in rats (paw weight, anti-inflammatory activity); type: in vivo, male Sprague-Dawley rats; settings: oral gavage once per day for 11 days; for Raw Paw Weight: Day 11, group average
# Procedure: Adjuvant-induced arthritis responds to both steroids and non-steroids. The degree of inflammation will be assessed by measuring differences in foot weight and/or the foot volume.
# as §1
# The composite was prepared by combining the isolated compounds genistein, flavionic acid, diadzien, diadzin and the peptide having the sequence Tyrosine-Glycine-Serine-Arginine-Serine. One milligram of each was mixed into 9 ml of distilled water and 1 ml of alcohol. The mixture was then diluted in order to deliver by daily gavage one and 10 mcg doses per kilo body weight.
# as §2
# Male Sprague-Dawley rats (275-310 g) were sensitized by injecting Fruend's complete adjuvant (0.5% suspension of killed mycobacterium tuberculosis (H37RA, Difco, in mineral oil)). A 0.1 ml aliquot was administered intradermally at a plantar site on the right hind leg of each rat.
# as §3, §4
# The paw weights for each group were averaged. Anti-inflammatory activity was determined by comparing paw weights calculated as follows: [formula]
# Hydrocortisone was used as a positive control. It is a common anti-inflammatory given to rheumatoid arthritis patients at a dose of 10 mg/kg body weight. The composite of the invention was given at 10 mcg/kg and 1 mcg/kg body weight.
structure (smiles),measurement,setting,value
C[C@]12CCC(=O)C=C1CC[C@@H]1[C@@H]2[C@@H](O)C[C@@]2(C)[C@H]1CC[C@]2(O)C(=O)CO [Hydrocortisone],Avg. Final Body wt.,[1]; 1 mcg/kg body wt.,331.0 g
same,Avg. Weight Gain,[1]; 1 mcg/kg body wt.,31.4 g
same,reduction in weight gain,"[1]; 10 mcg/kg body weight, 11 days, versus controls",~50%
same,Avg. Final Body wt.,[1]; 10 mcg/kg body wt.,317.0 g
same,Avg. Weight Gain,[1]; 10 mcg/kg body wt.,23.6 g
same,Raw Paw Weight,[2]; 1 mcg/kg body wt.,0.80 g
same,Raw Paw Weight,[2]; 10 mcg/kg body wt.,0.76 g
same,inhibition at 0.001 mg/kg,"[2]; Rattus norvegicus, 264 h, 1 mcg/kg body wt., calculated from paw weights",50%
same,inhibition at 0.01 mg/kg,"[2]; Rattus norvegicus, 264 h, 10 mcg/kg body wt., calculated from paw weights",58%
